Assay results as given in patent US20250186541A1, “DLL3 TARGETING PEPTIDES AND CONSTRUCTS THEREOF” (MARIANA ONCOLOGY INC., priority 2023, published 2025).
Numbered stars: 1 amine (or outer) side, 2 acyl side, 3 side chain; on linkers, the order of the positions; unused ones are H or OH. Bridge positions count the residues as written; N and C are the ends. Square brackets hold non-standard residues; d marks the D form. Peptide text beside a SMILES is read from it. * marks the point of attachment. DOTA = O=C(O)CN1CCN(CC(=O)O)CCN(CC(=O)*)CCN(CC(=O)O)CC1; 1Nal = N[C@@H](Cc1cccc2ccccc12)C(=O)O; oXylylene = c1ccc(C[*:2])c(C[*:1])c1; Gly(cPent) = N[C@H](C(=O)O)C1CCCC1; pXylylene = c1cc(C[*:2])ccc1C[*:1]; Ala(cPr) = N[C@@H](CC1CC1)C(=O)O; Chg = N[C@H](C(=O)O)C1CCCCC1; αMeP = C[C@@]1(C(=O)O)CCCN1

Biological target: T1, human DLL3 (Homo sapiens, UniProt Q9NYJ7)
T1 construct: biotin (biotinylated)
T1 sequence (Q9NYJ7 27-618): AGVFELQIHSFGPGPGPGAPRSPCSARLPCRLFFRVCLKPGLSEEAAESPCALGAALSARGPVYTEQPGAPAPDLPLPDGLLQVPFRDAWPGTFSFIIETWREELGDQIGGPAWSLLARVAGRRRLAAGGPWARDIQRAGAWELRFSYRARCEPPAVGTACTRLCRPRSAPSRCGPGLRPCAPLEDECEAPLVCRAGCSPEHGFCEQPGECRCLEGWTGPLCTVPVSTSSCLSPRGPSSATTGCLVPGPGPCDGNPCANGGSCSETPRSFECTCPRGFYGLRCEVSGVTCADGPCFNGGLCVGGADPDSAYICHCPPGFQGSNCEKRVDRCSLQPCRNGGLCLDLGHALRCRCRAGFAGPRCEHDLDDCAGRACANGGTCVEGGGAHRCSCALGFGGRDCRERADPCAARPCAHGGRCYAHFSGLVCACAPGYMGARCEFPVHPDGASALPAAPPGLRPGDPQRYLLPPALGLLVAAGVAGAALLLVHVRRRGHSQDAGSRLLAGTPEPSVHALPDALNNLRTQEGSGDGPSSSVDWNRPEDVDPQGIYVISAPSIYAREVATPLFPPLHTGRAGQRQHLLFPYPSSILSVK
Test: Affinity determination by Surface Plasmon Resonance (SPR), Biacore, 1:1 binding model
Conditions: biotinylated human DLL3 on streptavidin chip, 25° C.; NB = nonbinding
Outline: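 SPR with biotinylated human DLL3 captured on a streptavidin chip, with a reference surface subtracted. Samples were injected at several concentrations at 100 μL/min in phosphate buffer with 137 mM NaCl, 2.7 mM KCl, 0.05% P20 and 2% DMSO. Kinetic and affinity constants came from a 1:1 binding fit.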

SMILES | Kd | SPR KD (nM)
CC(=O)N[C@H](C(=O)N[C@@H](CCCCNC(=O)CN1CCN(CC(=O)O)CCN(CC(=O)O)CCN(CC(=O)O)CC1)C(=O)N[C@@H](CC(=O)O)C(=O)N[C@H]1CSSC[C@@H](C(=O)N2CCC[C@@]2(C)C(=O)N[C@@H](Cc2ccccc2)C(=O)N[C@@H](CC(=O)O)C(N)=O)NC(=O)[C@H](CC(N)=O)NC(=O)[C@H](Cc2c[nH]c3ccccc23)NC(=O)[C@H](CCC(N)=O)NC(=O)[C@H](CC(C)C)NC(=O)[C@H](Cc2cccc3ccccc23)NC1=O)C1CCCCC1 [compound 142, Ac-(Chg)-[L-Lys(DOTA)]-D-C(3)-(1Nal)-L-Q-W-N-C(3)-(aMe-P)-F-D-CONH2] (Ac-[Chg]K(DOTA)DC[1Nal]LQWNC[αMeP]FD-NH2; disulfide 4-10) | 20.2 nM | –
CC(=O)N[C@H](C(=O)N[C@@H](CO)C(=O)N[C@@H](CC(=O)O)C(=O)N[C@H]1CSCc2ccccc2CSC[C@@H](C(=O)N2CCC[C@@]2(C)C(=O)N[C@@H](Cc2ccccc2)C(=O)N[C@@H](CC(=O)O)C(=O)N[C@H](CCCCNC(=O)CN2CCN(CC(=O)O)CCN(CC(=O)O)CCN(CC(=O)O)CC2)C(N)=O)NC(=O)[C@H](CC(N)=O)NC(=O)[C@H](Cc2c[nH]c3ccccc23)NC(=O)[C@H](CCC(N)=O)NC(=O)[C@H](CC(C)C)NC(=O)[C@H](Cc2cccc3ccccc23)NC1=O)C1CCCCC1 [compound 143, Ac-(Chg)-S-D-C(oDBX)-(1Nal)-L-Q-W-N-C(2)-(aMe-P)-F-D-D-Lys(DOTA)-CONH2] (Ac-[Chg]SDC[1Nal]LQWNC[αMeP]FD[dK](DOTA)-NH2; linker 4-10 via oXylylene) | – | slow kon
CC(=O)N[C@H](C(=O)N[C@@H](CO)C(=O)N[C@@H](CC(=O)O)C(=O)N[C@H]1CSCc2ccc(cc2)CSC[C@@H](C(=O)N2CCC[C@@]2(C)C(=O)N[C@@H](Cc2ccccc2)C(=O)N[C@@H](CC(=O)O)C(=O)N[C@H](CCCCNC(=O)CN2CCN(CC(=O)O)CCN(CC(=O)O)CCN(CC(=O)O)CC2)C(N)=O)NC(=O)[C@H](CC(N)=O)NC(=O)[C@H](Cc2c[nH]c3ccccc23)NC(=O)[C@H](CCC(N)=O)NC(=O)[C@H](CC(C)C)NC(=O)[C@H](Cc2cccc3ccccc23)NC1=O)C1CCCCC1 [compound 145, Ac-(Chg)-S-D-C(pDBX)-(1Nal)-L-Q-W-N-C(2)-(aMe-P)-F-D-D-Lys(DOTA)-CONH2] (Ac-[Chg]SDC[1Nal]LQWNC[αMeP]FD[dK](DOTA)-NH2; linker 4-10 via pXylylene) | > 30 nM | –

Next, values leading:

Kd | SPR KD (nM) | SMILES
1.5 nM | – | CC(=O)N[C@H](CO)C(=O)N[C@@H](CC(=O)O)C(=O)N[C@H]1CSSC[C@@H](C(=O)N2CCC[C@@]2(C)C(=O)N[C@@H](Cc2ccccc2)C(=O)N[C@@H](CC(=O)O)C(=O)N[C@H](CCCCNC(=O)CN2CCN(CC(=O)O)CCN(CC(=O)O)CCN(CC(=O)O)CC2)C(N)=O)NC(=O)[C@H](CC(N)=O)NC(=O)[C@H](Cc2c[nH]c3ccccc23)NC(=O)[C@H](CCC(N)=O)NC(=O)[C@H](CC2CC2)NC(=O)[C@H](Cc2cccc3ccccc23)NC1=O [compound 140, Ac-(D-Ser)-D-C(3)-(1Nal)-(cPrA)-Q-W-N-C(3)-(aMe-P)-F-D-D-Lys(DOTA)-CONH2] (Ac-[dS]DC[1Nal][Ala(cPr)]QWNC[αMeP]FD[dK](DOTA)-NH2; disulfide 3-9)
1.18 nM | – | CC(=O)N[C@H](CO)C(=O)N[C@@H](CC(=O)O)C(=O)N[C@H]1CSSC[C@@H](C(=O)N2CCC[C@@]2(C)C(=O)N[C@@H](Cc2ccccc2)C(=O)N[C@@H](CC(=O)O)C(=O)N[C@H](CCCCNC(=O)CN2CCN(CC(=O)O)CCN(CC(=O)O)CCN(CC(=O)O)CC2)C(N)=O)NC(=O)[C@H](CC(N)=O)NC(=O)[C@H](Cc2c[nH]c3ccccc23)NC(=O)[C@H](CCC(N)=O)NC(=O)[C@H](C2CCCC2)NC(=O)[C@H](Cc2cccc3ccccc23)NC1=O [compound 141, Ac-(D-Ser)-D-C(3)-(1Nal)-(cPenG)-Q-W-N-C(3)-(aMe-P)-F-D-D-Lys(DOTA)-CONH2] (Ac-[dS]DC[1Nal][Gly(cPent)]QWNC[αMeP]FD[dK](DOTA)-NH2; disulfide 3-9)
